The source of these data is patent publication US20140378460A1, “COMPOSITIONS AND METHODS FOR TREATING NEURODEGENERATIVE DISEASE” (COGNITION THERAPEUTICS, INC., priority 2011, published 2014).

Data set [1] has as its system caspase-3 in neuronal cultures. As to the kind of experiment: Caspase-3 activity in neurons. It counts as cell-based.
In data set [2] the test system is Abeta oligomer-induced membrane trafficking deficits in primary hippocampal neurons. In words: Membrane trafficking/exocytosis (MTT) assay. It is filed as cell-based, rat. The method, then:
The methods used to generate the results were as follows in the Membrane Trafficking/Exocytosis (MTT) assay.
Primary hippocampal neurons from E18 Sprague-Dawley rat embryos were plated at optimized concentrations in 384 well plates in NB media (Invitrogen). Neurons were maintained in cultures for 3 weeks, with twice weekly feeding of NB media with N2 supplement (Invitrogen).
A test compound was added to cells at concentrations ranging from 100 uM to 0.001 nM followed by addition of vehicle or Abeta oligomer preparations (3 μM total Abeta protein concentration), and incubated for 1 to 24 hr at 37° C. in 5% CO2. MTT reagent (3-(4,5-dimethylthizaol-2-yl)-2,5diphenyl tetrazolium bromide) (Roche Molecular Biochemicals) was reconstituted in phosphate buffered saline to 5 mg/mL. 10 μl, of MTT labeling reagent is added to each well and incubated at 37° C. for 1 h, then imaged. Exocytosis was assessed by automated microscopy and image processing to quantify the amount of endocytosed and exocytosed formazan.
Each assay plate was formatted so that compounds are tested with and without Abeta oligomer on each plate.

For another data set, the system named is alpha 1A, 1B. The note with it: cited from earlier work.
Data set [3] deals with sigma-2 receptor. The note with it: 1 μM each; 18.4 nM [3H]-RHM-1.
Data set [4] deals with SKOV-3 human ovarian cancer cell line. As to the kind of experiment: MTS tumor cell viability assay. It is filed as cell-based. The note with it: by EC50 relative to siramesine. On the procedure: The cytotoxicity of compounds shown below was determined using the CellTiter96 Aqueous One Solution Assay (Promega, Madison, Wis.). […] The plate was read at 490 nm in a Victor3 plate reader (PerkinElmer Life and Analytical Sciences, Shelton, Conn.). The EC^50 value, defined as the concentration of the sigma ligand required to inhibit cell viability by 50% relative to untreated cells, was determined from the dose response curve for each cell line.

The subject of a further data set is neuronal cultures. As to the kind of experiment: Neuronal nuclear intensity / morphology. The note with it: 24 hours.
Data set [5] concerns the target T1, Sigma-1 receptors (UniProt Q60492).
T1 construct: other: known prior art compounds, published studies
The following applies: cited from earlier work.

For another data set, the target named is D2 (Homo sapiens, UniProt P14416). The note with it: cited from earlier work.
Sequence of D2 (P14416 whole entry): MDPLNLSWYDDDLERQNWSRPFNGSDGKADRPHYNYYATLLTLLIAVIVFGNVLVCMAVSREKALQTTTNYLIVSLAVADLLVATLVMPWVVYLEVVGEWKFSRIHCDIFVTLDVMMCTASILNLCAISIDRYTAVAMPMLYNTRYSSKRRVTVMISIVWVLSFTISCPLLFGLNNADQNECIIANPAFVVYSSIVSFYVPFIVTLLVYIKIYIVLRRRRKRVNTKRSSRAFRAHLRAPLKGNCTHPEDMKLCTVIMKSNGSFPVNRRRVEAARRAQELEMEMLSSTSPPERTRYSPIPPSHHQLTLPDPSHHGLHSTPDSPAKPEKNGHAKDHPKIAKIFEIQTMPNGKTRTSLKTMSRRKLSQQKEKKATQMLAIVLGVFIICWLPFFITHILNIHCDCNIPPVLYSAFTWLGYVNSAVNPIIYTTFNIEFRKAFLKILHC
The subject of another data set is Sigma-2 receptors. The note with it: cited from earlier work; for Ki: Table 11E, clinical compounds, second figure of S1/S2, read-out: Sigma Affinity (S2).
The test system of data set [6] is caspase-3 in SKOV-3 human ovarian cancer cells. In words: Caspase-3 activity in tumor cells. It counts as cell-based.
The test system of data set [7] is Sigma-1 receptors. The note with it: cited from earlier work; for Ki: Table 11E, clinical compounds, first figure of S1/S2, read-out: Sigma Affinity (S1).
The next data set addresses Adrenergic transporter (Homo sapiens, UniProt P23975). The following applies: cited from earlier work.
A further data set deals with Dopamine transporter (Homo sapiens, UniProt Q01959). The note with it: cited from earlier work.
Sequence of Dopamine transporter (Q01959 whole entry): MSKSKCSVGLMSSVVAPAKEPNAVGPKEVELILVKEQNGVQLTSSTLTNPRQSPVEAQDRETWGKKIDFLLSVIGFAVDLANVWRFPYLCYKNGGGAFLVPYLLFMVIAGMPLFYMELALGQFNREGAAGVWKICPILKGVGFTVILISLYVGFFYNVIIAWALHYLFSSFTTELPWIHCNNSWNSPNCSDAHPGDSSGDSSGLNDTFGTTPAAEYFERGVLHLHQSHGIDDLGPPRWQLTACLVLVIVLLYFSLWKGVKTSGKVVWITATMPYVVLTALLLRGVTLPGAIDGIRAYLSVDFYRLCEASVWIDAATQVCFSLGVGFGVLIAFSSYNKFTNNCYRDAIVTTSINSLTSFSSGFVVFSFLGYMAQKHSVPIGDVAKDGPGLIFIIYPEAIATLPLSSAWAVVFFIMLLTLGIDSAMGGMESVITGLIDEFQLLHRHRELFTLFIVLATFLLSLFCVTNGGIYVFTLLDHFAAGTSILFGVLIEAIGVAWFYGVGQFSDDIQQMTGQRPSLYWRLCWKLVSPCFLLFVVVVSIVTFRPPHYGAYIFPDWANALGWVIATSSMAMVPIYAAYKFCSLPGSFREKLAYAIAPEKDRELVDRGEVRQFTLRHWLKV
In the next data set the target is serotonin transporter (Homo sapiens, UniProt P31645). The following applies: cited from earlier work.
Sequence of serotonin transporter (P31645 whole entry): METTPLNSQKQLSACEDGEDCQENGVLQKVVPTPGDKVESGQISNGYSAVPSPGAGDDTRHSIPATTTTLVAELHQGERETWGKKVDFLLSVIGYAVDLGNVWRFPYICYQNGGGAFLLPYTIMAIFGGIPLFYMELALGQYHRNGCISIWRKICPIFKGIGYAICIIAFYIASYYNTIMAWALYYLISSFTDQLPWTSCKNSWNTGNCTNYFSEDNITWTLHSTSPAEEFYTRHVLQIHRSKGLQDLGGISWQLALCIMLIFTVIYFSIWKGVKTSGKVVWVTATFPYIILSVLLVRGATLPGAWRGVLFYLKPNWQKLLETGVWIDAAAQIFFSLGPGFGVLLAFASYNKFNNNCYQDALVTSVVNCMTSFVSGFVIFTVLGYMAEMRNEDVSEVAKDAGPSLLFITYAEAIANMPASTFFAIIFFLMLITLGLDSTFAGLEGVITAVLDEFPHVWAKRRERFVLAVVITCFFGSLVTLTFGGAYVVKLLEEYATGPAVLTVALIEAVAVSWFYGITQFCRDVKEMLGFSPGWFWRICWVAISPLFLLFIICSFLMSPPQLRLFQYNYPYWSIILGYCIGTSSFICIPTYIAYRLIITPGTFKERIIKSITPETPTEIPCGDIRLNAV
A further data set has as its system 5-HT2A, B, C. The following applies: cited from earlier work.
For the next data set, the system named is PCP. The following applies: cited from earlier work.
In a further data set the target is NMDAR2A (Homo sapiens, UniProt Q12879). The following applies: cited from earlier work.
Sequence of NMDAR2A (Q12879 23-1464, other chains not shown): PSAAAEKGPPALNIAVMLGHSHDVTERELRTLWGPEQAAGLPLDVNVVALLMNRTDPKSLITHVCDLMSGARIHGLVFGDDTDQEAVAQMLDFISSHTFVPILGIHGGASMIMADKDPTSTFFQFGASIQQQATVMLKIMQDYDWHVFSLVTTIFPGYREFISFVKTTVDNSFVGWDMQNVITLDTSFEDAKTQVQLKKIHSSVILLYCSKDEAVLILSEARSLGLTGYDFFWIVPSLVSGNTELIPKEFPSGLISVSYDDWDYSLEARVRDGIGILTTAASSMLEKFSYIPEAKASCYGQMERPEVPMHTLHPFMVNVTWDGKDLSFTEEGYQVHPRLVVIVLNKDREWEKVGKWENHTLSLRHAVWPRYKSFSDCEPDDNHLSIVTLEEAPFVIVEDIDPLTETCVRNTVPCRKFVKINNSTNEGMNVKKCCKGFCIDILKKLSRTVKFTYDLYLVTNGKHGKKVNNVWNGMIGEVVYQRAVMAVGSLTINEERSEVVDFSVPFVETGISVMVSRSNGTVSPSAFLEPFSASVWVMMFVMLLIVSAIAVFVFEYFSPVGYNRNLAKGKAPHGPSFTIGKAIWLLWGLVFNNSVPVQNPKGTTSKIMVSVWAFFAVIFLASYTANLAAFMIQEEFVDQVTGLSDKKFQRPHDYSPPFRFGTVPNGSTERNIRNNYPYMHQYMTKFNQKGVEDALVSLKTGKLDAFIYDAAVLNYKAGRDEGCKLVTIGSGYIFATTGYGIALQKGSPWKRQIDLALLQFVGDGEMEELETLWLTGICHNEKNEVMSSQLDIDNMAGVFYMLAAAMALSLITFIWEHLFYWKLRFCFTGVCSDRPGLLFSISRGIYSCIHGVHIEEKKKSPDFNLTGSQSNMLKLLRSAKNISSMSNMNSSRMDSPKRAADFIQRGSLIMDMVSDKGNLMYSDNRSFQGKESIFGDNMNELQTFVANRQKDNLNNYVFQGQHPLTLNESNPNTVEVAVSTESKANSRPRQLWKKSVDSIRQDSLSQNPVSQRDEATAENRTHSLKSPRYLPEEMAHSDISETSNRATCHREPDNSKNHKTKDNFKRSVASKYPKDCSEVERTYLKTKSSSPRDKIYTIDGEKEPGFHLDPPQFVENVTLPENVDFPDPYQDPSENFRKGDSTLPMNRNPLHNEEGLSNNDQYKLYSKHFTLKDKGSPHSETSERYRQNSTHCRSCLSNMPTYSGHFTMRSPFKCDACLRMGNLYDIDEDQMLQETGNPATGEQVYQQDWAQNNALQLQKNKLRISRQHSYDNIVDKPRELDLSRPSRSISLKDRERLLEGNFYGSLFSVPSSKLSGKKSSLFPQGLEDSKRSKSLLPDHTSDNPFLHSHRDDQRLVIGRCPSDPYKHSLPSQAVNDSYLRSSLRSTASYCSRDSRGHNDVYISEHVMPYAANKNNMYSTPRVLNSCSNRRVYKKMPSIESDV
Another data set concerns the target NMDAR2B (Homo sapiens, UniProt Q13224). The note with it: cited from earlier work.
The target in data set [8] is T2, sigma-2 receptor (Rattus norvegicus, UniProt Q5U3Y7).
T2 sequence (Q5U3Y7 1-176): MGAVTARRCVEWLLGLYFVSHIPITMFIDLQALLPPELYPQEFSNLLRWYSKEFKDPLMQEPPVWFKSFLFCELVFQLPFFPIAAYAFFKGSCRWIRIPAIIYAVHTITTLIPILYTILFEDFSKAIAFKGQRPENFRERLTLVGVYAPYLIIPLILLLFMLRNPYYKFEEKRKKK
More on the design: other: known prior art compounds, published studies. The note with it: read-out: S2 binding Ki; Table 11C; cited from earlier work.

In a further data set the test system is muscarinic M1, 2, D2. The note with it: cited from earlier work.
A further data set concerns alpha1 AR, 5-HT1a/2, H1. The note with it: cited from earlier work.
In a further data set the target is VAChT (Homo sapiens, UniProt Q16572). The note with it: cited from earlier work.
Sequence of VAChT (Q16572 whole entry, species assumed): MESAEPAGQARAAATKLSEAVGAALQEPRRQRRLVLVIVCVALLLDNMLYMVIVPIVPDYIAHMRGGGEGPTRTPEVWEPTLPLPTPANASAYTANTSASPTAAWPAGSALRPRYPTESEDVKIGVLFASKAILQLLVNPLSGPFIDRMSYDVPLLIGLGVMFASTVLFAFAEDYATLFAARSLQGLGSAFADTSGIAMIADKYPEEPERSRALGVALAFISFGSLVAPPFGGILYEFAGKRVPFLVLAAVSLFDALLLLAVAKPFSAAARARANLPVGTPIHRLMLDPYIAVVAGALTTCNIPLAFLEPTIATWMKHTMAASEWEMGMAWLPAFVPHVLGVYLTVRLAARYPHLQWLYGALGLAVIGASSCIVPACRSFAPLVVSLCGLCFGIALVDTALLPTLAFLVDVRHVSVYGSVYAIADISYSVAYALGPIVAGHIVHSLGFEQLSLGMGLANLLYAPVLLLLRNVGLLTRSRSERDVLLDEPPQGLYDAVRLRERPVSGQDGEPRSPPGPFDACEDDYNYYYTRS
Setting [9] is: Rattus norvegicus, Hippocampal neuron, Table 11C, known prior art compounds, read-out: Inhibition Abeta oligomer-induced Membrane Trafficking EC50.

Where two headings read alike, the source gives them in different places. Some results are limits rather than exact numbers.

Sequence of Adrenergic transporter (P23975 whole entry): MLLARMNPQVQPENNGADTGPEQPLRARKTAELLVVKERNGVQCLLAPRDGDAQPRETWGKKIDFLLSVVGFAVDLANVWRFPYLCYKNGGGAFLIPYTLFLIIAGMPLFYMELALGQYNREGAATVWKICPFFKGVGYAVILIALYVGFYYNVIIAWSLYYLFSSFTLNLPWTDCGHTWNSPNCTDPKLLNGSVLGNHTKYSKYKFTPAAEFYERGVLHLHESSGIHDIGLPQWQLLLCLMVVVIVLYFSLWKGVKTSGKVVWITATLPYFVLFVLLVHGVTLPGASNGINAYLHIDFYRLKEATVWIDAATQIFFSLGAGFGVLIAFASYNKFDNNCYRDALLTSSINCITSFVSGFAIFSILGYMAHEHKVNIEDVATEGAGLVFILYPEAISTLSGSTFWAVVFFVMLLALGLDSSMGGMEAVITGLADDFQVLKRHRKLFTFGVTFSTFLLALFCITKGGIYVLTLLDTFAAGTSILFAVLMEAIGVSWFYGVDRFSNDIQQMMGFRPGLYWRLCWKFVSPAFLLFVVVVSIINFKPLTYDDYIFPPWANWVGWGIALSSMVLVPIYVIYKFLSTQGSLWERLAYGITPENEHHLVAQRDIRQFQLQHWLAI

On to `Fc1ccc(-n2cc(CCCCN3CCC4(CC3)OCc3ccccc34)c3ccccc32)cc1` [siramesine], for which, in data set [1], the “Caspase-3 activity induced in neurons” value is “induced”. In addition, the “Effect on Abeta oligomer trafficking deficits over the concentrations tested” value in data set [2] is reported as “blocks Abeta oligomer trafficking deficits at low concentrations, but causes cellular toxicity at high concentrations”. For the same compound, the half-maximal effective concentration (EC50) (in general, the concentration needed to bring the measured effect to its halfway point) in data set [2] (setting [9]) came to 1.3 µM. In addition, the “Functional Neuronal Phenotype” value in data set [2] (Table 11C) was “Agonist”. Further, in the data set with alpha 1A, 1B, the “Other Targets: alpha 1A, 1B” value is on record as 1A, 1B (300 nM). The “Displacement of [3H]-RHM-1” value in the data set with sigma-2 receptor [3] was “partially displace”. For the same compound, in data set [4], the Action entry was “Full agonist”. Besides, the “Nuclear morphology / nuclear intensity in neurons” value with neuronal cultures is reported as “caused significant abnormal nuclear morphology”. The Ki is 19 nM on Sigma-1 receptors [5] (read-out: S1 binding Ki, Table 11C) and 19 nM at Sigma-1 receptors [5] (read-out: Sigma 1 Binding Ki, known prior art compounds, published studies). Further, the “Other Targets: D2” value on D2 is on record as “D2 (800 nM), alpha”. Moreover, in the data set with Sigma-2 receptors (in brackets after the Ki), the “Sigma 2 type of activity” value is on record as “agonist”. Moreover, in data set [6], the “Caspase-3 activity induced in tumor cells” value is recorded as “induced caspase-3 activity”.

`COCCCC/C(=N\OCCN)c1ccc(C(F)(F)F)cc1` [Fluvoxamine, fluvoxamine]: the EC50 in data set [2] (setting [9]) was determined as 2.5 µM. Besides, the IC50 (in general, the concentration needed to halve the response being measured) in data set [2] (Rattus norvegicus, Hippocampal neuron, Table 11D, read-out: Membrane trafficking IC50) amounted to 2500 nM. In addition, the “Functional Neuronal Phenotype” value in data set [2] (Table 11C) and in [2] (Table 11D) was “Antagonist” each time. Also, the Ki on Sigma-1 receptors [5] (Table 11C, read-out: S1 binding Ki) was 13 nM; on Sigma-1 receptors [5] (Table 11D, read-out: Sigma-1 Receptor Ki), 13 nM; at Sigma-1 receptors [5] (known prior art compounds, published studies, read-out: Sigma 1 Binding Ki), 13 nM; on Sigma-2 receptors it was 710 nM. In the data set on Sigma-1 receptors [7] (known prior art compounds), the “Sigma 1 (Type of Activity)” value was “(agonist)”. Also, the “Other Targets: Adrenergic transporter” value on Adrenergic transporter is recorded as “transporter (299 nM”. Further, the “Other Targets: Dopamine transporter” value at Dopamine transporter is listed as “transporter (1.5 nM”. Further, at serotonin transporter, the “Other Targets: serotonin transporter” value is listed as “nM), Serotonin (12”.

Consider `OCCN1CCN(CCCN2c3ccccc3C=Cc3ccccc32)CC1` [Opipramol], for which the “Other Targets: alpha 1A, 1B” value in the data set with alpha 1A, 1B is 1A, 1B(200 nM). The Ki was 7 nM on Sigma-1 receptors [7] and 56 nM at Sigma-2 receptors. Also, in the data set on 5-HT2A, B, C, the “Other Targets: 5-HT2A, B, C” value is given as 5-HT2A, B, C (120 nM.

In the case of `CC(C)=CCN1CCC2(C)c3cc(O)ccc3CC1C2C` (centres unmarked) [Pentazocine, pentazocine], the “Other Targets: PCP” value in the data set on PCP is on record as “PCP (2.9 uM)”. Besides, the half-maximal effective concentration (EC50) in data set [2] (Rattus norvegicus, Hippocampal neuron, read-out: Inhibition Abeta oligomer-induced Membrane Trafficking EC50 (uM)) amounted to 7.6 µM. The “Functional Neuronal Phenotype” value in [2] (Table 11C) is recorded as “Antagonist”. Moreover, the “Other Targets: 2A (NMDAR2A)” value at NMDAR2A is “uM), 2A (2.7 uM),”. Also, on NMDAR2B, the “Other Targets: NMDAR2B” value is recorded as “NMDAR2B (2.5 uM”. The Ki on Sigma-2 receptors is 5000 nM; on sigma-2 receptor [8], more than 5000 nM.

With `COc1ccc(CCN2CCN(CCCc3ccccc3)CC2)cc1OC.Cl.Cl` [Cutamesine, Cutamesine dihydrochloride], the “Other Targets: muscarinic M1, 2, D2” value in the data set on muscarinic M1, 2, D2 was “D2 (2 uM), alpha1”. In addition, the Ki on Sigma-1 receptors [7] is 17 nM; on Sigma-2 receptors, more than 1800 nM. Moreover, the “Other Targets: alpha1 AR, 5-HT1a/2, H1” value in the data set on alpha1 AR, 5-HT1a/2, H1 is given as “(2 uM)”. Besides, the “Other Targets: VAChT” value on VAChT is on record as “VAChT(50 nM),”.
